Values joined by “and” are separate entries in the source; they are usually repeats but may differ in a detail not shown here. Equal entries are not always repeated.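 Interpolation was linear, between the two tested concentrations surrounding the appropriate level; five concentrations were tested over 48 hours in 96-well plates. GI50 = concentration required for 50% inhibition of growth. The concentration for full growth arrest is given as TGI.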
Experiments:
Assay in all cases: growth of human tumour cells (NCI), 48 h
A498 renal = tested on: A498 renal
MCF7 breast = tested on: MCF7 breast
SF-539 CNS = tested on: SF-539 CNS
MDA-MB-468 breast = tested on: MDA-MB-468 breast
KM12 colon = tested on: KM12 colon
K-562 leukemia = tested on: K-562 leukemia
SNB-75 CNS = tested on: SNB-75 CNS
SN12C renal = tested on: SN12C renal
RPMI-8226 leukemia = tested on: RPMI-8226 leukemia
EKVX NSCLC = tested on: EKVX NSCLC
CCRF-CEM leukemia = tested on: CCRF-CEM leukemia
PC-3 prostate = tested on: PC-3 prostate
NCI-H522 lung = tested on: NCI-H522 lung
TK-10 renal = tested on: TK-10 renal
HL-60(TB) leukemia = tested on: HL-60(TB) leukemia
MDA-MB-231 breast = tested on: MDA-MB-231 breast
CAKI-1 renal = tested on: CAKI-1 renal
RXF 393 renal = tested on: RXF 393 renal
OVCAR-5 ovarian = tested on: OVCAR-5 ovarian
UACC-62 melanoma = tested on: UACC-62 melanoma
DU-145 prostate = tested on: DU-145 prostate
HOP-92 NSCLC = tested on: HOP-92 NSCLC
SF-268 CNS = tested on: SF-268 CNS
M14 melanoma = tested on: M14 melanoma
NCI/ADR-RES ovarian = tested on: NCI/ADR-RES ovarian
SNB-19 CNS = tested on: SNB-19 CNS
OVCAR-8 ovarian = tested on: OVCAR-8 ovarian
SK-MEL-2 melanoma = tested on: SK-MEL-2 melanoma
MOLT-4 leukemia = tested on: MOLT-4 leukemia
SR leukemia = tested on: SR leukemia
ACHN renal = tested on: ACHN renal
HS 578T breast = tested on: HS 578T breast
UO-31 renal = tested on: UO-31 renal
HOP-62 NSCLC = tested on: HOP-62 NSCLC
LOX IMVI melanoma = tested on: LOX IMVI melanoma
HCC-2998 colon = tested on: HCC-2998 colon
HT29 colon = tested on: HT29 colon
SW-620 colon = tested on: SW-620 colon
MALME-3M melanoma = tested on: MALME-3M melanoma
BT-549 breast = tested on: BT-549 breast
HCT-15 colon = tested on: HCT-15 colon
UACC-257 melanoma = tested on: UACC-257 melanoma
SK-OV-3 ovarian = tested on: SK-OV-3 ovarian
OVCAR-3 ovarian = tested on: OVCAR-3 ovarian
SK-MEL-28 melanoma = tested on: SK-MEL-28 melanoma
T-47D breast = tested on: T-47D breast
NCI-H23 lung = tested on: NCI-H23 lung
HCT-116 colon = tested on: HCT-116 colon
MDA-MB-435 = tested on: MDA-MB-435
OVCAR-4 ovarian = tested on: OVCAR-4 ovarian
786-0 renal = tested on: 786-0 renal
COLO 205 colon = tested on: COLO 205 colon
NCI-H226 lung = tested on: NCI-H226 lung

SMILES: COc1cc2cc(C(=O)N3C[C@@H](CCl)c4c3cc(OC(=O)N3CCN(C(=O)CCC(=O)N5CCN(C)CC5)[C@@H]5CSSC[C@@H]53)c3ccccc43)[nH]c2c(OC)c1OC
- GI50 (A498 renal): 122 nM and 218 nM
- TGI (A498 renal): 1400 nM and 471 nM
- GI50 (MCF7 breast): 14.9 nM
- TGI (MCF7 breast): 1590 nM
- GI50 (SF-539 CNS): 38.5 nM and 38.9 nM
- TGI (SF-539 CNS): 91.3 nM and 151 nM
- GI50 (MDA-MB-468 breast): 37.3 nM
- TGI (MDA-MB-468 breast): 161 nM
- GI50 (KM12 colon): 74.7 nM and 131 nM
- GI50 (K-562 leukemia): 122 nM and 89.1 nM
- TGI (K-562 leukemia): 25000 nM and 9070 nM
- GI50 (SNB-75 CNS): 41.8 nM and 79.8 nM
- TGI (SNB-75 CNS): 148 nM and 354 nM
- GI50 (SN12C renal): 32.8 nM
- TGI (SN12C renal): 7040 nM
- GI50 (RPMI-8226 leukemia): 64.6 nM and 142 nM
- TGI (RPMI-8226 leukemia): 2720 nM and 13200 nM
- GI50 (EKVX NSCLC): 71.7 nM and 207 nM
- TGI (EKVX NSCLC): 403 nM and 1380 nM
- GI50 (CCRF-CEM leukemia): 270 nM
- TGI (CCRF-CEM leukemia): > 100000 nM
- GI50 (PC-3 prostate): 57.7 nM and 479 nM
- TGI (PC-3 prostate): 25000 nM and 10500 nM
- GI50 (NCI-H522 lung): 43.5 nM and 55.4 nM
- TGI (NCI-H522 lung): 114 nM and 364 nM
- GI50 (TK-10 renal): 663 nM and 1050 nM
- TGI (TK-10 renal): 25000 nM and 22200 nM
- GI50 (HL-60(TB) leukemia): 53 nM and 48 nM
- TGI (HL-60(TB) leukemia): 1090 nM and 2390 nM
- GI50 (MDA-MB-231 breast): 64 nM and 204 nM
- TGI (MDA-MB-231 breast): 160 nM and 536 nM
- GI50 (CAKI-1 renal): 101 nM and 172 nM
- TGI (CAKI-1 renal): 1470 nM and 701 nM
- GI50 (RXF 393 renal): 37.4 nM and 34.7 nM
- TGI (RXF 393 renal): 74.8 nM and 138 nM
- GI50 (OVCAR-5 ovarian): 82.8 nM
- TGI (OVCAR-5 ovarian): 386 nM
- GI50 (UACC-62 melanoma): 43.6 nM and 136 nM
- TGI (UACC-62 melanoma): 158 nM and 324 nM
- GI50 (DU-145 prostate): 13.6 nM and 24.5 nM
- TGI (DU-145 prostate): 25000 nM and 10200 nM
- GI50 (HOP-92 NSCLC): 95.1 nM and 178 nM
- TGI (HOP-92 NSCLC): 875 nM and 752 nM
- GI50 (SF-268 CNS): 58.3 nM
- TGI (SF-268 CNS): 608 nM
- GI50 (M14 melanoma): 36.6 nM and 124 nM
- TGI (M14 melanoma): 118 nM and 377 nM
- GI50 (NCI/ADR-RES ovarian): 64.4 nM
- TGI (NCI/ADR-RES ovarian): 268 nM
- GI50 (SNB-19 CNS): 34 nM and 90.8 nM
- TGI (SNB-19 CNS): 25000 nM and 16000 nM
- GI50 (OVCAR-8 ovarian): 42.5 nM
- TGI (OVCAR-8 ovarian): 160 nM
- GI50 (SK-MEL-2 melanoma): 47.1 nM and 42.8 nM
- TGI (SK-MEL-2 melanoma): 93.5 nM and 131 nM
- GI50 (MOLT-4 leukemia): 12.4 nM and 62.8 nM
- TGI (MOLT-4 leukemia): 25000 nM and 4720 nM
- GI50 (SR leukemia): 6.22 nM and 19.5 nM
- GI50 (ACHN renal): 30.5 nM
- TGI (ACHN renal): 93.2 nM
- GI50 (HS 578T breast): 266 nM and 292 nM
- TGI (HS 578T breast): 1830 nM and 2450 nM
- GI50 (UO-31 renal): 75 nM
- TGI (UO-31 renal): 2840 nM
- GI50 (HOP-62 NSCLC): 41.3 nM
- TGI (HOP-62 NSCLC): 231 nM
- GI50 (LOX IMVI melanoma): 37.6 nM and 69.2 nM
- TGI (LOX IMVI melanoma): 114 nM and 276 nM
- GI50 (HCC-2998 colon): 28.7 nM and 54.2 nM
- TGI (HCC-2998 colon): 68.5 nM and 188 nM
- GI50 (HT29 colon): 57.9 nM and 142 nM
- GI50 (SW-620 colon): 55.5 nM
- TGI (SW-620 colon): 25000 nM
- GI50 (MALME-3M melanoma): 45.9 nM and 134 nM
- TGI (MALME-3M melanoma): 102 nM and 284 nM
- GI50 (BT-549 breast): 41 nM and 144 nM
- TGI (BT-549 breast): 132 nM and 413 nM
- GI50 (HCT-15 colon): 65.5 nM and 244 nM
- TGI (HCT-15 colon): 1070 nM and 10500 nM
- GI50 (UACC-257 melanoma): 131 nM and 273 nM
- TGI (UACC-257 melanoma): 711 nM and 1430 nM
- GI50 (SK-OV-3 ovarian): 72.2 nM
- TGI (SK-OV-3 ovarian): 374 nM
- GI50 (OVCAR-3 ovarian): 53.9 nM
- TGI (OVCAR-3 ovarian): 131 nM
- GI50 (SK-MEL-28 melanoma): 47.6 nM and 159 nM
- TGI (SK-MEL-28 melanoma): 106 nM and 333 nM
- GI50 (T-47D breast): 118 nM and 229 nM
- TGI (T-47D breast): 25000 nM and 19700 nM
- GI50 (NCI-H23 lung): 10.3 nM and 18.6 nM
- TGI (NCI-H23 lung): 50.5 nM and 88.7 nM
- GI50 (HCT-116 colon): 154 nM
- TGI (HCT-116 colon): 11600 nM
- GI50 (MDA-MB-435): 46.6 nM and 147 nM
- TGI (MDA-MB-435): 102 nM and 298 nM
- GI50 (OVCAR-4 ovarian): 86.3 nM
- TGI (OVCAR-4 ovarian): 662 nM
- GI50 (786-0 renal): 49 nM
- TGI (786-0 renal): 135 nM
- GI50 (COLO 205 colon): 49.4 nM and 145 nM
- TGI (COLO 205 colon): 133 nM and 315 nM
- GI50 (NCI-H226 lung): 453 nM and 245 nM
- TGI (NCI-H226 lung): 1670 nM and 3180 nM

— PubChem BioAssay (NCI)
